In brackets after ≈: the same amount, converted by molar mass. Several values for one entry are separate records, joined by “and”; a condition that tells them apart may be missing. Equal values may be shown once. Read-outs that look alike come from different tables or passages of the source.
Legend:
[1] = test system: CV-1 Normal Monkey Kidney Epithelial; experiment: Clonogenic dye screening assay, CV-1 cells (IC50); assay type: cell-based, African green monkey; settings: for IC50: Primates; for IC50 (concentration at which 50% of the cells of the culture are killed): cell line 1, CV-1 normal control
Outline: (§1)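 Cells seeded 16-30 h ahead (2000 CX-1 or 1000 CV-1 per well), exposed to serially diluted dyes for 3 h at 37 °C, rinsed three times, then grown into colonies. Eight-point curves spanned 0.32-0.0015 μg/mL (CX-1) and 3.2-0.025 μg/mL (CV-1). IC50 is the concentration killing 50% of cells.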

[2] = test system: CX-1 Human Colon Carcinoma; experiment: Clonogenic dye screening assay, CX-1 cells (IC50); assay type: cell-based; set-up: CX: unit not given here; settings: for CX (IC50 in the CX-1 cell line): 3 hrs treatment, unit from method b117-118; for IC50: Homo sapiens; for CV/CX: selectivity ratio of IC50 values; for CV/CX (selectivity, kill ratio): ratio of IC50 in normal CV-1 line to IC50 in carcinoma CX-1 line; for Selectivity: IC50 CV-1 / IC50 cell line 2 (CX-1)
Outline: as §1

[3] = test system: CCL 185 Human Lung Carcinoma; experiment: Initial in vitro screening, lung carcinoma cells; assay type: cell-based; settings: for Selectivity: IC50 CV-1 / IC50 cell line 6 (lung carcinoma); for IC50: read-out: IC50 (concentration at which 50% of the cells of the culture are killed)
Source text: (§2) Other publications have shown that some cyanine dyes show anti-cancer activity. See I. Minami, Y. Kozai, H. Nomura and T. Tashiro, Chem. Phar. Bull. 30:3106 (1982); W. M. Anderson, D. L. Delinick, L. Benninger, J. M. Wood, S. T. Smiley and L. B. Chen, Biochemical Pharmacology, 45:691 (1993). […] (See L. G. S. Brooker, L. A. Sweet, Science, 105, (1947) and I. Minami, Y. Kozai, H. Nomura, T. Tashiro, Chem. Pharm. Bull., 30,3106 (1982) on chemotherapeutic investigations of cyanine dyes.) Table I lists initial in vitro screening results in various cell lines and a comparison with Adriamycin, which is a widely used chemotherapeutic agent.
(§3) Description of Cell Line • 1. CV-1 Normal Monkey Kidney Epithelial (control) • 2. CX-1 Human Colon Carcinoma • 3. Human Breast Carcinoma • 4. Human Pancreatic Carcinoma • 5. Human Bladder Carcinoma • 6. Human Lung Carcinoma • 7. Human Squamous Cell Carcinoma • 8. Human Adrenal Cortex Carcinoma

[4] = test system: CCL 105 Human Adrenal Cortex Carcinoma; experiment: Initial in vitro screening, adrenal cortex carcinoma cells; assay type: cell-based; settings: for Selectivity: IC50 CV-1 / IC50 cell line 8 (adrenal cortex carcinoma); for IC50: read-out: IC50 (concentration at which 50% of the cells of the culture are killed)
Source text: as §2, §3

[5] = test system: CRL 1420 Human Pancreatic Carcinoma; experiment: Initial in vitro screening, pancreatic carcinoma cells; assay type: cell-based; settings: for Selectivity: IC50 CV-1 / IC50 cell line 4 (pancreatic carcinoma); for IC50: read-out: IC50 (concentration at which 50% of the cells of the culture are killed)
Source text: as §2, §3

[6] = test system: SCC 68 Human Squamous Cell Carcinoma; experiment: Initial in vitro screening, squamous cell carcinoma cells; assay type: cell-based; settings: for Selectivity: IC50 CV-1 / IC50 cell line 7 (squamous cell carcinoma); for IC50: read-out: IC50 (concentration at which 50% of the cells of the culture are killed)
Source text: as §2, §3

[7] = test system: EJ Human Bladder Carcinoma; experiment: Initial in vitro screening, bladder carcinoma cells; assay type: cell-based; settings: for Selectivity: IC50 CV-1 / IC50 cell line 5 (bladder carcinoma); for IC50 / IC50 (concentration at which 50% of the cells of the culture are killed): cell line 5, EJ human bladder carcinoma, unit from method; for IC50: read-out: IC50 (concentration at which 50% of the cells of the culture are killed)
Source text: as §2, §3

[8] = CV-1, Table XIX, CV-1 cells, read-out: CV
[9] = CX-1, Table XIX, CX-1 cells, read-out: CX
[10] = cell line 6, CCL 185 human lung carcinoma, unit from method
[11] = cell line 8, CCL 105 human adrenal cortex carcinoma, unit from method
[12] = cell line 4, CRL 1420 human pancreatic carcinoma, unit from method
[13] = cell line 7, SCC 68 human squamous cell carcinoma, unit from method
[14] = CV-1, cell line 1, CV-1 normal control, unit from method, read-out: IC50 (concentration at which 50% of the cells of the culture are killed)
[15] = CX-1, cell line 2, CX-1, unit from method, read-out: IC50 (concentration at which 50% of the cells of the culture are killed)

CX (IC50 in the CX-1 cell line) ([2]; colonies after 7-10 days) [µg/mL] | SMILES | CV/CX ([2]; Table XIX) | CV/CX (selectivity, kill ratio) [2] | Selectivity [3] | IC50 [3, 10] [µg/mL] | Selectivity [4] | IC50 [4, 11] [µg/mL] | Selectivity [5] | IC50 [5, 12] [µg/mL] | Selectivity [6] | IC50 [6, 13] [µg/mL] | IC50 [1, 14] [µg/mL] | IC50 [2, 15] [µg/mL] | Selectivity [2] | Selectivity [7] | IC50 [7] [µg/mL] | further results
<0.005 | CCN1/C(=C/C=C/c2sc3cc4ccccc4cc3[n+]2CC)Sc2cc3ccccc3cc21 [Dye D-109] | 75.000 | 60 and >60.0 | – | – | – | – | – | – | – | – | – | – | – | – | – | IC50 [1, 8]: 0.3 µg/mL; IC50 [2, 9]: 0.004 µg/mL
<0.005 | CCN1/C(=C/C=C/c2sc3ccccc3[n+]2CC)Sc2ccccc21.[I-] [Dye D-101] | 100.000 and 75.000 | 100 and >100.0 | 50 | – | >100 | – | 100 | – | 13.3 | – | – | – | 100 | >100 | – | IC50 (concentration at which 50% of the cells of the culture are killed) ([1]; unit from method): 0.5 µg/mL and 0.50 µg/mL; CX ([2]; Table XIX, CX-1 cells): 0.004; CV/CX ([2]; Table XV): 100.0; IC50 (concentration at which 50% of the cells of the culture are killed) [7]: <0.005 µg/mL
0.05 | CCN1/C(=C/C=C/c2sc3cc4ccccc4cc3[n+]2CC)Sc2cc3ccccc3cc21 [Dye D-160] | 75.000 | 100 | – | < 0.005 | – | < 0.005 | – | < 0.005 | – | < 0.005 | 0.3 | < 0.005 | – | – | < 0.005 | CX ([2]; Table XIX, CX-1 cells): 0.004

More lines, now with the values behind:

SMILES | CX (IC50 in the CX-1 cell line) ([2]; colonies after 7-10 days) [µg/mL] | CV/CX ([2]; Table XIX) | CV/CX (selectivity, kill ratio) [2] | Selectivity [3] | IC50 [3, 10] [µg/mL] | Selectivity [4] | IC50 [4, 11] [µg/mL] | Selectivity [5] | IC50 [5, 12] [µg/mL] | Selectivity [6] | IC50 [6, 13] [µg/mL] | IC50 [1, 14] [µg/mL] | IC50 [2, 15] [µg/mL] | Selectivity [2] | Selectivity [7] | IC50 [7] [µg/mL] | further results
COc1cccc2c1C(=O)c1c(O)c3c(c(O)c1C2=O)C[C@@](O)(C(=O)CO)C[C@@H]3O[C@H]1C[C@H](N)[C@H](O)[C@H](C)O1 [Adriamycin, reference compound] | – | – | – | 11 | 0.07 (≈ 0.129 µM) | 16 | 0.05 (≈ 0.092 µM) | 13 | 0.06 (≈ 0.11 µM) | 10 | 0.08 (≈ 0.147 µM) | 0.8 (≈ 1.47 µM) | 0.55 (≈ 1.01 µM) | 1.5 | 8 | 0.1 (≈ 0.184 µM) | –
CCN1C(=CC=Cc2sc3cc4ccccc4cc3[n+]2CC)Sc2cc3ccccc3cc21 [AC-2] | – | – | – | >60 | – | >60 | – | >60 | – | >60 | – | – | – | >60 | >60 | – | IC50 (concentration at which 50% of the cells of the culture are killed) [3, 10]: <.005 µg/mL; IC50 (concentration at which 50% of the cells of the culture are killed) [4, 11]: <.005 µg/mL; IC50 (concentration at which 50% of the cells of the culture are killed) [5, 12]: <.005 µg/mL; IC50 (concentration at which 50% of the cells of the culture are killed) [6, 13]: <.005 µg/mL; IC50 (concentration at which 50% of the cells of the culture are killed) ([1]; unit from method): 0.30 µg/mL; IC50 (concentration at which 50% of the cells of the culture are killed) ([2]; cell line 2, CX-1, unit from method): <.005 µg/mL; IC50 (concentration at which 50% of the cells of the culture are killed) [7]: <.005 µg/mL
CCN1C(=CC=Cc2sc3cc4ccccc4nc3[n+]2CC)Sc2cc3ccccc3nc21 [Dye D-150] | – | 100.000 | 100 | 150 | 0.02 | 300 | 0.01 | 100 | 0.03 | 30 | 0.1 | 3 | 0.03 | 100 | 300 | 0.01 | IC50 ([1]; CV-1, 3 hrs treatment, colonies after 7-10 days, unit from method, read-out: CV (IC50 in the CV-1 cell line)): 3 µg/mL; IC50 [1, 8]: 3 µg/mL; IC50 ([2]; CX-1, 3 hrs treatment, colonies after 7-10 days, unit from method, read-out: CX (IC50 in the CX-1 cell line)): 0.03 µg/mL; IC50 [2, 9]: 0.03 µg/mL
CCN1/C(=C\C=C\C2=[N+](CC)c3ccccc3C2(C)C)C(C)(C)c2ccccc21 [Dye D-103] | – | 500.000 | 500 | – | – | – | – | – | – | – | – | – | – | – | – | – | IC50 ([1]; CV-1, read-out: CV): 5 µg/mL; IC50 ([1]; CV-1, read-out: CV (IC50 in the CV-1 cell line)): 5 µg/mL; IC50 ([2]; CX-1, read-out: CX): 0.01 µg/mL; IC50 ([2]; CX-1, read-out: CX (IC50 in the CX-1 cell line)): 0.01 µg/mL; CV/CX ([2]; Table XV): 500.0

Reference: patent US20060099712A1, “Correlation of anti-cancer activity of dyes with redox potentials” (Eastman Kodak Company, priority 2004, published 2006)
